How the values were obtained:
Details in all cases: three weeks after treatment
Triticum aestivum [1] = experiment: Post-emergence herbicidal evaluation, TRZAW
Setaria viridis [2] = experiment: Pre-emergence herbicidal evaluation, SETVI; type: in vivo
Excerpt: (§1) The treated pots are then placed on greenhouse benches, watered and cared for in accordance with conventional greenhouse procedures.

Glycine max [3] = experiment: Post-emergence herbicidal evaluation, GLXMA
Lolium perenne [4] = experiment: Pre-emergence herbicidal evaluation, LOLPE; type: in vivo
Excerpt: as §1

Lolium perenne [5] = experiment: Post-emergence herbicidal evaluation, LOLPE
Zea mays [6] = experiment: Post-emergence herbicidal evaluation, ZEAMX
Protocol: (§2) Each pot is examined three weeks after treatment and phytotoxicity is assessed according to the rating system set forth below.
(§3) These acetone solutions are diluted with water and the resulting formulations applied at dosage levels equivalent of about 0.4 to 0.1 kg per hectare of test compound per pot. After spraying the plants are placed on greenhouse benches and are cared for in the usual manner, commensurate with conventional greenhouse practices.

Triticum aestivum [7] = experiment: Pre-emergence herbicidal evaluation, TRZAW; type: in vivo
Excerpt: as §1

Amaranthus tuberculatus [8] = experiment: Pre-emergence herbicidal evaluation, AMATA; type: in vivo
Excerpt: as §1

Apera spica venti [9] = experiment: Post-emergence herbicidal evaluation, APESV
Protocol: (§4) The compounds of the invention are tested for pre- and post-emergence herbicidal activity.
as §2, §3

Echinochloa crus-galli [10] = experiment: Post-emergence herbicidal evaluation, ECHCG
Protocol: as §4, §2, §3

Oryza sativum [11] = experiment: Post-emergence herbicidal evaluation, ORYSA
Apera spica venti [12] = experiment: Pre-emergence herbicidal evaluation, APESV; type: in vivo
Excerpt: as §1

Alopecurus myosuroides [13] = experiment: Post-emergence herbicidal evaluation, ALOMY
Hordeum vulgare [14] = experiment: Post-emergence herbicidal evaluation, HORVW
Oryza sativum [15] = experiment: Pre-emergence herbicidal evaluation, ORYSA; type: in vivo
Excerpt: as §1

Echinochloa crus-galli [16] = experiment: Pre-emergence herbicidal evaluation, ECHCG; type: in vivo
Excerpt: as §1

Setaria viridis [17] = experiment: Post-emergence herbicidal evaluation, SETVI
Glycine max [18] = experiment: Pre-emergence herbicidal evaluation, GLXMA; type: in vivo
Excerpt: as §1

Hordeum vulgare [19] = experiment: Pre-emergence herbicidal evaluation, HORVW; type: in vivo
Excerpt: as §1

Zea mays [20] = experiment: Pre-emergence herbicidal evaluation, ZEAMX; type: in vivo
Excerpt: as §1

Alopecurus myosuroides [21] = experiment: Pre-emergence herbicidal evaluation, ALOMY; type: in vivo
Excerpt: as §1

Amaranthus tuberculatus [22] = experiment: Post-emergence herbicidal evaluation, AMATA; type: in vivo
Galium aparine = experiment: Post-emergence herbicidal evaluation, GALAP

## CCc1nnc(OCC(=O)N(CC)C2=CC(C)(C)CC(C)=C2)s1 [Example 6]
Triticum aestivum [1]; 0.100 kg/ha
  phytotoxicity rating TRZAW: 0 (0 - No effect)
Triticum aestivum [1]; 0.200 kg/ha
  phytotoxicity rating TRZAW: 0 (0 - No effect)
Triticum aestivum [1]; 0.400 kg/ha
  phytotoxicity rating TRZAW: 1 (1 - Trace effect)
Setaria viridis [2]; 0.200 kg/ha
  phytotoxicity rating SETVI: 5 (5 - Definite injury)
Setaria viridis [2]; 0.400 kg/ha
  phytotoxicity rating SETVI: 8 (8 - Approaching complete kill)
Setaria viridis [2]; 0.800 kg/ha
  phytotoxicity rating SETVI: 9 (9 - Complete kill)
Glycine max [3]; 0.100 kg/ha
  phytotoxicity rating GLXMA: 3 (3 - Moderate effect)
Glycine max [3]; 0.200 kg/ha
  phytotoxicity rating GLXMA: 4 (4 - Injury)
Glycine max [3]; 0.400 kg/ha
  phytotoxicity rating GLXMA: 4 (4 - Injury)
Lolium perenne [4]; 0.100 kg/ha
  phytotoxicity rating LOLPE: 0 (0 - No effect)
Lolium perenne [4]; 0.200 kg/ha
  phytotoxicity rating LOLPE: 0 (0 - No effect)
Lolium perenne [4]; 0.400 kg/ha
  phytotoxicity rating LOLPE: 5 (5 - Definite injury)
Lolium perenne [4]; 0.800 kg/ha
  phytotoxicity rating LOLPE: 7 (7 - Good herbicidal effect)
Lolium perenne [5]; 0.100 kg/ha
  phytotoxicity rating LOLPE: 0 (0 - No effect)
Lolium perenne [5]; 0.200 kg/ha
  phytotoxicity rating LOLPE: 0 (0 - No effect)
Lolium perenne [5]; 0.400 kg/ha
  phytotoxicity rating LOLPE: 0 (0 - No effect)
Zea mays [6]; 0.100 kg/ha
  phytotoxicity rating ZEAMX: 0 (0 - No effect)
Zea mays [6]; 0.200 kg/ha
  phytotoxicity rating ZEAMX: 0 (0 - No effect)
Zea mays [6]; 0.400 kg/ha
  phytotoxicity rating ZEAMX: 0 (0 - No effect)
Triticum aestivum [7]; 0.100 kg/ha
  phytotoxicity rating TRZAW: 0 (0 - No effect)
Triticum aestivum [7]; 0.200 kg/ha
  phytotoxicity rating TRZAW: 0 (0 - No effect)
Triticum aestivum [7]; 0.400 kg/ha
  phytotoxicity rating TRZAW: 0 (0 - No effect)
Triticum aestivum [7]; 0.800 kg/ha
  phytotoxicity rating TRZAW: 2 (2 - Slight effect)
Amaranthus tuberculatus [8]; 0.100 kg/ha
  phytotoxicity rating AMATA: 0 (0 - No effect)
Amaranthus tuberculatus [8]; 0.200 kg/ha
  phytotoxicity rating AMATA: 0 (0 - No effect)
Amaranthus tuberculatus [8]; 0.400 kg/ha
  phytotoxicity rating AMATA: 0 (0 - No effect)
Amaranthus tuberculatus [8]; 0.800 kg/ha
  phytotoxicity rating AMATA: 5 (5 - Definite injury)
Apera spica venti [9]; 0.100 kg/ha
  phytotoxicity rating APESV: 0 (0 - No effect)
Apera spica venti [9]; 0.200 kg/ha
  phytotoxicity rating APESV: 0 (0 - No effect)
Apera spica venti [9]; 0.400 kg/ha
  phytotoxicity rating APESV: 1 (1 - Trace effect)
Echinochloa crus-galli [10]; 0.100 kg/ha
  phytotoxicity rating ECHCG: 0 (0 - No effect)
Echinochloa crus-galli [10]; 0.200 kg/ha
  phytotoxicity rating ECHCG: 0 (0 - No effect)
Echinochloa crus-galli [10]; 0.400 kg/ha
  phytotoxicity rating ECHCG: 0 (0 - No effect)
Oryza sativum [11]; 0.100 kg/ha
  phytotoxicity rating ORYSA: 0 (0 - No effect)
Oryza sativum [11]; 0.200 kg/ha
  phytotoxicity rating ORYSA: 1 (1 - Trace effect)
Oryza sativum [11]; 0.400 kg/ha
  phytotoxicity rating ORYSA: 2 (2 - Slight effect)
Apera spica venti [12]; 0.100 kg/ha
  phytotoxicity rating APESV: 0 (0 - No effect)
Apera spica venti [12]; 0.200 kg/ha
  phytotoxicity rating APESV: 0 (0 - No effect)
Apera spica venti [12]; 0.400 kg/ha
  phytotoxicity rating APESV: 0 (0 - No effect)
Apera spica venti [12]; 0.800 kg/ha
  phytotoxicity rating APESV: 9 (9 - Complete kill)
Alopecurus myosuroides [13]; 0.100 kg/ha
  phytotoxicity rating ALOMY: 0 (0 - No effect)
Alopecurus myosuroides [13]; 0.200 kg/ha
  phytotoxicity rating ALOMY: 4 (4 - Injury)
Alopecurus myosuroides [13]; 0.400 kg/ha
  phytotoxicity rating ALOMY: 8 (8 - Approaching complete kill)
Hordeum vulgare [14]; 0.100 kg/ha
  phytotoxicity rating HORVW: 0 (0 - No effect)
Hordeum vulgare [14]; 0.200 kg/ha
  phytotoxicity rating HORVW: 0 (0 - No effect)
Hordeum vulgare [14]; 0.400 kg/ha
  phytotoxicity rating HORVW: 0 (0 - No effect)
Oryza sativum [15]; 0.100 kg/ha
  phytotoxicity rating ORYSA: 0 (0 - No effect)
Oryza sativum [15]; 0.200 kg/ha
  phytotoxicity rating ORYSA: 0 (0 - No effect)
Oryza sativum [15]; 0.400 kg/ha
  phytotoxicity rating ORYSA: 3 (3 - Moderate effect)
Oryza sativum [15]; 0.800 kg/ha
  phytotoxicity rating ORYSA: 7 (7 - Good herbicidal effect)
Echinochloa crus-galli [16]; 0.100 kg/ha
  phytotoxicity rating ECHCG: 3 (3 - Moderate effect)
Echinochloa crus-galli [16]; 0.200 kg/ha
  phytotoxicity rating ECHCG: 6 (6 - Herbicidal effect)
Echinochloa crus-galli [16]; 0.400 kg/ha
  phytotoxicity rating ECHCG: 8 (8 - Approaching complete kill)
Echinochloa crus-galli [16]; 0.800 kg/ha
  phytotoxicity rating ECHCG: 9 (9 - Complete kill)
Setaria viridis [17]; 0.100 kg/ha
  phytotoxicity rating SETVI: 0 (0 - No effect)
Setaria viridis [17]; 0.200 kg/ha
  phytotoxicity rating SETVI: 0 (0 - No effect)
Setaria viridis [17]; 0.400 kg/ha
  phytotoxicity rating SETVI: 0 (0 - No effect)
Glycine max [18]; 0.100 kg/ha
  phytotoxicity rating GLXMA: 0 (0 - No effect)
Glycine max [18]; 0.200 kg/ha
  phytotoxicity rating GLXMA: 0 (0 - No effect)
Glycine max [18]; 0.400 kg/ha
  phytotoxicity rating GLXMA: 0 (0 - No effect)
Glycine max [18]; 0.800 kg/ha
  phytotoxicity rating GLXMA: 0 (0 - No effect)
Hordeum vulgare [19]; 0.100 kg/ha
  phytotoxicity rating HORVW: 0 (0 - No effect)
Hordeum vulgare [19]; 0.200 kg/ha
  phytotoxicity rating HORVW: 0 (0 - No effect)
Hordeum vulgare [19]; 0.400 kg/ha
  phytotoxicity rating HORVW: 1 (1 - Trace effect)
Hordeum vulgare [19]; 0.800 kg/ha
  phytotoxicity rating HORVW: 3 (3 - Moderate effect)
Zea mays [20]; 0.100 kg/ha
  phytotoxicity rating ZEAMX: 0 (0 - No effect)
Zea mays [20]; 0.200 kg/ha
  phytotoxicity rating ZEAMX: 0 (0 - No effect)
Zea mays [20]; 0.400 kg/ha
  phytotoxicity rating ZEAMX: 0 (0 - No effect)
Zea mays [20]; 0.800 kg/ha
  phytotoxicity rating ZEAMX: 0 (0 - No effect)
Alopecurus myosuroides [21]; 0.200 kg/ha
  phytotoxicity rating ALOMY: 5 (5 - Definite injury)
Alopecurus myosuroides [21]; 0.400 kg/ha
  phytotoxicity rating ALOMY: 6 (6 - Herbicidal effect)
Alopecurus myosuroides [21]; 0.800 kg/ha
  phytotoxicity rating ALOMY: 9 (9 - Complete kill)
Amaranthus tuberculatus [22]; 0.100 kg/ha
  phytotoxicity rating AMATA: 0 (0 - No effect)
Amaranthus tuberculatus [22]; 0.200 kg/ha
  phytotoxicity rating AMATA: 0 (0 - No effect)
Amaranthus tuberculatus [22]; 0.400 kg/ha
  phytotoxicity rating AMATA: 0 (0 - No effect)
Galium aparine; 0.100 kg/ha
  phytotoxicity rating GALAP: 0 (0 - No effect)
Galium aparine; 0.200 kg/ha
  phytotoxicity rating GALAP: 0 (0 - No effect)
Galium aparine; 0.400 kg/ha
  phytotoxicity rating GALAP: 4 (4 - Injury)

— patent US6339042B1, “Herbicidal N-cyclohexadienyl heteroaryloxyacetamides” (American Cyanamid Co., priority 1999, dated 2002)
